# In the oligonucleotide strings, read from the 5' end, every base follows the letter of its sugar. An asterisk marks phosphorothioate; unmarked linkages are phosphodiester. Other units and linkages are bracketed, terminal groups are in braces. A string of capitals states the bases alone. d = 2'-deoxy (DNA)
# Tests used:
# [1] = test system: patients with mild to moderately active ulcerative colitis; test: Clinical phase II study in ulcerative colitis patients; format: in vivo, human; details: for Clinical response at Week 1: No, n (%) / Clinical response at Week 1: Yes, n (%): single rectal dose, ITT/Safety population; for clinical response rate at week 1, all receiving active drug: all four dose levels pooled (26/119)
# Experimental: A large 150 patient study performed in ulcerative colitis patients who were neither on concomitant steroid therapies nor were described as being steroid refractory/dependent.
# Primary objective: To evaluate the ability of each of the four dose levels (0.3 mg, 3 mg, 30 mg and 100 mg) of oligonucleotide SEQ.ID.NO.1 as an anti-inflammatory therapy to induce clinical remission in patients with mild to moderately active ulcerative colitis (UC), as compared with placebo.
# Secondary objective: To assess the tolerability of single rectal doses of SEQ.ID.NO.1 oligonucleotide and to further evaluate the efficacy and safety of SEQ.ID.NO.1 oligonucleotide at four dose levels and to assess the pharmacokinetics of SEQ.ID.NO.1 oligonucleotide after rectal administration, as compared to placebo.
# human PBMC [2] = test: Induction of IFN-gamma from healthy human PBMC (ELISpot); format: cell-based; details: PBMC from 7 healthy individuals, 48 hours, FIG. 12
# Experimental: (§1) Whole blood was obtained from healthy blood donors. PBMCs were prepared from 30 ml whole blood according to the following protocol:
# (§2) 30 ml blood was transferred directly into heparinized tubes. All blood was transferred into one 50 ml Falcon tube and PBS added up to 50 ml. 15 ml Ficoll (17-1440-03, obtained from Amersham Bioscience AB, Uppsala) was then added into two falcon tubes (50 ml). The PBS-treated blood was then carefully added on the top of to Ficoll, 25 ml to each tube. The tubes were then centrifuged 25 min at 1700 RPM at RT (20° C.).
# RPMIc medium was prepared under sterile conditions, using a 0.22 uM filter. (RPMIc denotes a RPMI 1640 culture medium (R0883, Sigma) supplemented with 5% heat-inactivated (56° C.,1 h) FCS 1.5 mM L-glutamine (G7513, Sigma), 100 U/ml penicillin and 100 ug/ml streptomycin, PEST (P0781, Sigma), hepes (H0887, Sigma), and gentamycin (G1272, Sigma)). […]
# The cells were counted and left in PBS, then centrifuged at 1200 RPM, 10 min. Medium was then added to obtain the concentration of interest, and the cells counted (16 squares)×3. The mean value was calculated and multiplied with the dilution factor×10^4=cells/ml. […]
# Elispot assays where performed according to the manufactures recommended guidelines (MabTech) and the plates were analyzed using an AID ELISpot reader system (Autoimmun Diagnostika GmbH, Strassberg, Germany). […]
# human PBMC [3] = test: Induction of IL-10 from healthy human PBMC (ELISpot); format: cell-based; details: PBMC from 5 healthy individuals, 48 hours
# Experimental: as §1, §2
# (§3) RPMIc medium was prepared under sterile conditions, using a 0.22 uM filter. (RPMIc denotes a RPMI 1640 culture medium (R0883, Sigma) supplemented with 5% heat-inactivated (56° C.,1 h) FCS 1.5 mM L-glutamine (G7513, Sigma), 100 U/ml penicillin and 100 ug/ml streptomycin, PEST (P0781, Sigma), hepes (H0887, Sigma), and gentamycin (G1272, Sigma)).
# (§4) The interphase was carefully pipetted from the two tubes into 2x 50mi Falcon tubes. PBS was added up to 50 ml in each tube, and the tubes centrifuged for 10 min at 1700 RPM (4° C.).
# (§5) The supernatant was discarded, and PBS added to 30 ml, whereupon the tubes were centrifuged at 10 min at 1500 RPM (4° C.). Again, the supernatant was discarded, 10 ml PBS added, and the pellets from the two falcon tubes pooled.
# (§6) The cells were counted and left in PBS, then centrifuged at 1200 RPM, 10 min. Medium was then added to obtain the concentration of interest, and the cells counted (16 squares)×3. The mean value was calculated and multiplied with the dilution factor×10^4=cells/ml. Diluting the cells to 10 million/ml will result in 500.000 cells/50 ul medium, 6 million/ml will be 300.000/50 ul medium.
# (§7) Elispot assays where performed according to the manufactures recommended guidelines (MabTech) and the plates were analyzed using an AID ELISpot reader system (Autoimmun Diagnostika GmbH, Strassberg, Germany).
# Approximately 500,000 PBMC cells per well, derived from blood from healthy human donors, were incubated for 48 hours in the presence of the different oligonucleotides. Specifically, SEQ.ID.NO 1, SEQ.ID.NO 2, SEQ.ID.NO 6 and SEQ.ID.NO 8. Following incubation, the wells were developed according to the kit supplier's recommendations and the average number of positive cells producing IL-10 per well were counted using an AID ELISpot reader system, (Autoimmun Diagnostika GmbH, Strassberg, Germany).
# human PBMC [4] = test: Induction of IFN-alpha from healthy human PBMC (ELISpot); format: cell-based; details: PBMC from 10 healthy individuals, 48 hours
# Experimental: as §1, §2, §3, §4, §5, §6, §7
# For this assay again 500,000 PBMC cells per well, derived from healthy human blood were incubated for 48 hours in the presence of the different oligonucleotides. Specifically, SEQ.ID.NO 1, SEQ.ID.NO 2, and SEQ.ID.NO 8. Following incubation, the wells were developed according to the kit suppliers recommendations and the average number of positive cells producing IFN-alpha per well were determined using an AID ELISpot reader.
# [5] = test system: human PBMC from steroid resistant asthmatics or healthy donors; test: Cytokine production in PBMC from steroid resistant asthmatics or healthy donors (Cytometric Bead Array); format: cell-based; details: 25 μM or 100 μM, 48 hours, CBA
# Experimental: Blood samples were obtained from healthy volunteers or steroid resistant asthmatics. PBMC were isolated by density gradient centrifugation using Ficoll-Paque Plus (Pharmacia Biotech, Uppsala, Sweden), washed three times in buffered saline solution (PBS), and re-suspended in RPMI 1640 (Sigma) containing 10% heat inactivated fetal calf serum (FCS) (Life Technologies), 100 U/mL penicillin 100 μg/mL streptomycin (Life Technologies), 2 mM L-glutamine (Sigma), gentamycin (Sigma) and 5 mM Hepes (Gibco, Life Technologies). Cells were counted using 0.4% Trypan blue solution (Sigma Aldrich)
# PBMC, prepared as previously described were, directly after seeding, stimulated with SEQ.ID.NO. 1. (25 μM and 100 μM) in the presence or absence of Dex (10^−6, 10^−8 and 10^−10 M) into a 96-well flat bottomed cell culture plate at 500 000 cells/well in RPMIc. As control ODN, 1 μM of IDX0910 was used. After treatment, cells were incubated in a humified incubator at 5% carbon dioxide and 37° C. for 48 hrs. Supernatants were saved and stored at −20° C. prior to cytokine level determination.
# The supernatants were kept at −20° C. until analyzed. IFN-, IL-6, IL-10, IL-2, IL-4 and TNF-alpha were measured utilizing the Cytometric Bead Array (CBA) from Becton Dickenson (BD), according to the manufacturer's protocol. The lower detection limit was 20 pg/ml for each cytokine. The FACSCalibur was used for all CBA analysis for this study.
# PBMCs were incubated in medium (basal) or with 25 μM (hatched bars) or 100 μM (dotted bars) of the CpG containing SEQ.ID.NO.1 for 48 hours before detection of IL-6 in supernatant. Each bar of the histogram represents average amount of IL-6 production from 9 healthy donors and 9 steroid resistant asthmatics. Experiments were performed in triplicate for each blood donor. Background levels of IL-6 (medium) were subtracted from each group of samples.
substance,measurement,setting,value
"5′-G*G*A*ACAGTTCGTCCAT*G*G*C-3′ (DNA dG*dG*dA*dAdCdAdGdTdTdCdGdTdCdCdAdT*dG*dG*dC) [SEQ.ID.NO 1, (Hu p65)AS, CpG-containing ODN; * marks phosphorothioate linkage, others phosphodiester]","Clinical response at Week 1: No, n (%)",[1]; 0.3 mg (N = 31),23 (74.2) n (%)
same,"Clinical response at Week 1: Yes, n (%)",[1]; 0.3 mg (N = 31),8 (25.8) n (%)
same,"Clinical response at Week 1: No, n (%)",[1]; 3 mg (N = 29),23 (79.3) n (%)
same,"Clinical response at Week 1: Yes, n (%)",[1]; 3 mg (N = 29),6 (20.7) n (%)
same,"Clinical response at Week 1: No, n (%)",[1]; 30 mg (N = 30),23 (76.7) n (%)
same,"Clinical response at Week 1: Yes, n (%)",[1]; 30 mg (N = 30),7 (23.3) n (%)
same,"Clinical response at Week 1: No, n (%)",[1]; 100 mg (N = 29),24 (82.8) n (%)
same,"Clinical response at Week 1: Yes, n (%)",[1]; 100 mg (N = 29),5 (17.2) n (%)
same,"clinical response rate at week 1, all receiving active drug",[1],22%
same,"clinical response rate at week 1, all receiving active drug",[1]; listed as Active,22%
same,"induction of clinical, endoscopic or histopathological remissions or responses","[1]; one single dose from 0.3 to 100 mg, over a 12 week period",could not confirm
same,safety profile,[1]; single rectal doses 0.3 to 100 mg,good safety profile
same,concentration at which induction of IFN-gamma becomes apparent,human PBMC [2],around 25 uM
same,concentration from which IL-10 producing cells are induced,human PBMC [3],around 5 uM
same,induction of IL-10 producing cells,human PBMC [3]; FIG. 11,clear potential to induce IL-10 producing cells
same,concentration at which induction of IFN-alpha starts / is apparent,human PBMC [4],1 µM
same,induction of IFN-alpha producing cells,human PBMC [4]; FIG. 13,clear inducing potential
same,"IL-6 induced, steroid resistant PBMCs compared to healthy PBMCs",[5]; 9 healthy donors and 9 steroid resistant asthmatics,significantly lower
same,"IL-10 induced, steroid resistant PBMCs compared to healthy PBMCs",[5],significantly lower
same,"interferon-gamma induced, steroid resistant PBMCs compared to healthy PBMCs",[5],significantly lower
